Reference: ChEMBL document CHEMBL1123971, “Synthesis, platelet aggregation inhibitory activity, and in vivo antithrombotic activity of new 1,4-dihydropyridines” (J Med Chem, 1988)
Several values for one entry are separate records, joined by “and”; a condition that tells them apart may be missing. Equal values may be shown once.

Experiments:
Cavia porcellus [1] = organism: Cavia porcellus; assay: Chronotropic activity on left and right guinea pig artia (beats/min), at 15 min; format: functional
Felis catus [2] = assay: Effect of intraperitoneal infusion on respiration frequency in Anesthetized cats at a dose of 200 mg/kg at 15 min; format: functional
Cavia porcellus [3] = organism: Cavia porcellus; assay: Chronotropic activity on left and right guinea pig artia (beats/min), at 90 min; format: functional
Felis catus [4] = assay: Effect of intraperitoneal infusion of compound on cardiac frequency in Anesthetized cats at a dose of 200 mg/kg at 165 min; format: functional, Heart
Felis catus [5] = assay: Effect of intraperitoneal infusion of compound on cardiac frequency in Anesthetized cats at a dose of 200 mg/kg at 150 min; format: functional, Heart
Felis catus [6] = assay: Effect of intraperitoneal infusion of compound on cardiac frequency in Anesthetized cats at a dose of 200 mg/kg at 180 mins; format: functional, Heart
Felis catus [7] = assay: Effect of intraperitoneal infusion on diastolic pressure in Anesthetized cats at a dose of 200 mg/kg at 90 min; format: functional
Cavia porcellus [8] = organism: Cavia porcellus; assay: Chronotropic activity on left and right guinea pig artia (beats/min), at 150 min; format: functional
Felis catus [9] = assay: Effect of intravenous infusion on cardiac frequency in Anesthetized cats at a dose of 0.00 mg/kg at 0 min; format: functional, Heart
Felis catus [10] = assay: Effect of intravenous infusion on systolic pressure in Anesthetized cats at a dose of 0.75 mg/kg at 5 min; format: functional
Felis catus [11] = assay: Effect of intraperitoneal infusion on respiration frequency in Anesthetized cats at a dose of 200 mg/kg at 45 min; format: functional
Felis catus [12] = assay: Effect of intraperitoneal infusion on diastolic pressure in Anesthetized cats at a dose of 200 mg/kg at 165 min; format: functional
Felis catus [13] = assay: Effect of intravenous infusion on diastolic pressure in Anesthetized cats at a dose of 0.75 mg/kg at 5 min; format: functional
Felis catus [14] = assay: Effect of intraperitoneal infusion on diastolic pressure in Anesthetized cats at a dose of 200 mg/kg at 180 min; format: functional
Felis catus [15] = assay: Effect of intraperitoneal infusion on systolic pressure in Anesthetized cats at a dose of 200 mg/kg at 165 min; format: functional
Mus musculus = organism: Mus musculus; assay: Dose required to protect 50% of tested mice against experimental antithrombosis.; format: functional
Felis catus [16] = assay: Effect of intravenous infusion on diastolic pressure in Anesthetized cats at a dose of 0 mg/kg at 0 min; format: functional
Felis catus [17] = assay: Effect of intraperitoneal infusion on diastolic pressure in Anesthetized cats at a dose of 200 mg/kg at 15 min; format: functional
Felis catus [18] = assay: Effect of intravenous infusion on systolic pressure in Anesthetized cats at a dose of 0.30 mg/kg at 2 min; format: functional; details: dose 0.3 mg/kg
Felis catus [19] = assay: Effect of intraperitoneal infusion on respiration frequency in Anesthetized cats at a dose of 200 mg/kg at 120 min; format: functional
Felis catus [20] = assay: Effect of intraperitoneal infusion on respiration frequency in Anesthetized cats at a dose of 200 mg/kg at 0 min; format: functional
Felis catus [21] = assay: Effect of intraperitoneal infusion of compound on cardiac frequency in Anesthetized cats at a dose of 200 mg/kg at 15 min; format: functional, Heart
Cavia porcellus [22] = organism: Cavia porcellus; assay: Chronotropic activity on left and right guinea pig artia (beats/min), at 60 min; format: functional
Felis catus [23] = assay: Effect of intraperitoneal infusion on systolic pressure in Anesthetized cats at a dose of 200 mg/kg at 135 min; format: functional
Oryctolagus cuniculus [24] = organism: Oryctolagus cuniculus; assay: Effect on 35 mM K+-induced contraction on rabbit aorta at a dose of 10E-8 mol/L; format: functional
Felis catus [25] = assay: Effect of intravenous infusion on respiration frequency in Anesthetized cats at a dose of 3 mg/kg at 20 min; format: functional
Felis catus [26] = assay: Effect of intraperitoneal infusion on respiration frequency in Anesthetized cats at a dose of 200 mg/kg at 90 min; format: functional
Cavia porcellus [27] = organism: Cavia porcellus; assay: Effect on guinea pig artia (beats/min), at the a dose of 10e-6 M; format: functional
Felis catus [28] = assay: Effect of intraperitoneal infusion on systolic pressure in Anesthetized cats at a dose of 200 mg/kg at 0 min; format: functional
Felis catus [29] = assay: Effect of intraperitoneal infusion of compound on cardiac frequency in Anesthetized cats at a dose of 200 mg/kg at 90 min; format: functional, Heart
Felis catus [30] = assay: Effect of intravenous infusion of compound on diastolic pressure in Anesthetized cats at a dose of 3 mg/kg at 20 min; format: functional
Cavia porcellus [31] = organism: Cavia porcellus; assay: Effect on guinea pig artia (beats/min), at the a dose of 0 M; format: functional
Oryctolagus cuniculus [32] = organism: Oryctolagus cuniculus; assay: Effect on 35 mM K+-induced contraction on rabbit aorta at a dose of 3*10e-6 mol/L; format: functional
Felis catus [33] = assay: Effect of intraperitoneal infusion on diastolic pressure in Anesthetized cats at a dose of 200 mg/kg at 45 min; format: functional
Felis catus [34] = assay: Effect of intraperitoneal infusion of compound on cardiac frequency in Anesthetized cats at a dose of 200 mg/kg at 45 min; format: functional, Heart
Felis catus [35] = assay: Effect of intraperitoneal infusion on systolic pressure in Anesthetized cats at a dose of 200 mg/kg at 75 min; format: functional
Felis catus [36] = assay: Effect of intraperitoneal infusion of compound on cardiac frequency in Anesthetized cats at a dose of 200 mg/kg at 135 min; format: functional, Heart
Cavia porcellus [37] = organism: Cavia porcellus; assay: Effect on guinea pig artia (beats/min), at the a dose of 10e-9 M; format: functional
Felis catus [38] = assay: Effect of intraperitoneal infusion on respiration frequency in Anesthetized cats at a dose of 200 mg/kg at 30 min; format: functional
Oryctolagus cuniculus [39] = organism: Oryctolagus cuniculus; assay: Effect on 35 mM K+-induced contraction on rabbit aorta at a dose of 3*10e-9 mol/L; format: functional
Felis catus [40] = assay: Effect of intraperitoneal infusion of compound on cardiac frequency in Anesthetized cats at a dose of 200 mg/kg at 0 min; format: functional, Heart
Felis catus [41] = assay: Effect of intravenous infusion on respiration frequency in Anesthetized cats at a dose of 0.75 mg/kg at 5 min; format: functional
Felis catus [42] = assay: Effect of intraperitoneal infusion on diastolic pressure in Anesthetized cats at a dose of 200 mg/kg at 60 min; format: functional
Felis catus [43] = assay: Effect of intraperitoneal infusion on respiration frequency in Anesthetized cats at a dose of 200 mg/kg at 165 min; format: functional
Cavia porcellus [44] = organism: Cavia porcellus; assay: Chronotropic activity on left and right guinea pig artia (beats/min), at 180 min; format: functional
Felis catus [45] = assay: Effect of intraperitoneal infusion of compound on cardiac frequency in Anesthetized cats at a dose of 200 mg/kg at 60 min; format: functional, Heart
Felis catus [46] = assay: Effect of intravenous infusion on diastolic pressure in Anesthetized cats at a dose of 1.50 mg/kg at 10 min; format: functional; details: dose 1.5 mg/kg

## CCO/C(O)=C1\C(C)=NC(C)=C(C(=O)OCCN2C(=O)c3ccccc3S2(=O)=O)C1C (stereo not given)
Cavia porcellus [1]
  Beats/min: 138
  Control: 100.7%
Felis catus [2]
  Respiratory frequency: 14 r.p.m.
Cavia porcellus [3]
  Beats/min: 133
  Control: 97.1%
Felis catus [4]
  Cardiac frequency: 278 beats min-1
Felis catus [5]
  Cardiac frequency: 265 beats min-1
Felis catus [6]
  Cardiac frequency: 276 beats min-1
Felis catus [7]
  Arterial pressure: 85 mmHg
Cavia porcellus [8]
  Beats/min: 129
  Control: 94.2%
Felis catus [9]
  Cardiac frequency: 190 beats min-1
Felis catus [10]
  Arterial pressure: 162 mmHg
Felis catus [11]
  Respiratory frequency: 14 r.p.m.
Felis catus [12]
  Arterial pressure: 80 mmHg
Felis catus [13]
  Arterial pressure: 112 mmHg
Felis catus [14]
  Arterial pressure: 80 mmHg
Felis catus [15]
  Arterial pressure: 142 mmHg
Mus musculus
  ED50: 2.23 µmol/kg and 1 mg/kg
Felis catus [16]
  Arterial pressure: 115 mmHg
Felis catus [17]
  Arterial pressure: 90 mmHg
Felis catus [18]
  Arterial pressure: 165 mmHg
Felis catus [19]
  Respiratory frequency: 13 r.p.m.
Felis catus [20]
  Respiratory frequency: 14 r.p.m.
Felis catus [21]
  Cardiac frequency: 254 beats min-1
Cavia porcellus [22]
  Beats/min: 136
  Control: 99.3%
Felis catus [23]
  Arterial pressure: 140 mmHg
Oryctolagus cuniculus [24]
  Inhibition: 0%
Felis catus [25]
  Respiratory frequency: 18 r.p.m.
Felis catus [26]
  Respiratory frequency: 12 r.p.m.
Cavia porcellus [27]
  Beats/min: 181
  Control: 98.5%
Felis catus [28]
  Arterial pressure: 130 mmHg
Felis catus [29]
  Cardiac frequency: 256 beats min-1
Felis catus [30]
  Arterial pressure: 110 mmHg
Cavia porcellus [31]
  Beats/min: 183
  Control: 100%
Oryctolagus cuniculus [32]
  Inhibition: 71.3%
Felis catus [33]
  Arterial pressure: 85 mmHg
Felis catus [34]
  Cardiac frequency: 245 beats min-1
Felis catus [35]
  Arterial pressure: 137 mmHg
Felis catus [36]
  Cardiac frequency: 271 beats min-1
Cavia porcellus [37]
  Beats/min: 193
  Control: 105.6%
Felis catus [38]
  Respiratory frequency: 13 r.p.m.
Oryctolagus cuniculus [39]
  Inhibition: 0%
Felis catus [40]
  Cardiac frequency: 260 beats min-1
Felis catus [41]
  Respiratory frequency: 19 r.p.m.
Felis catus [42]
  Arterial pressure: 85 mmHg
Felis catus [43]
  Respiratory frequency: 15 r.p.m.
Cavia porcellus [44]
  Beats/min: 130
  Control: 94.9%
Felis catus [45]
  Cardiac frequency: 256 beats min-1
Felis catus [46]
  Arterial pressure: 110 mmHg
